Calls of active or inactive are those of the source. The calls are words filed in the database; no cut-off is given here.
What was measured:
[1] = tested on: RAW264.7; assay: Cytotoxicity against mouse RAW264.7 cells assessed as reduction in cell viability at 100 uM measured after 24 hrs by CCK8 assay; assay type: toxicity, cell-based; conditions: raw264.7, 24 h
[2] = tested on: RAW264.7; assay: Antiinflammatory activity in mouse RAW264.7 cells assessed as reduction in LPS-induced NO production pre-incubated for 2 hrs followed by LPS stimulation measured after 24 hrs by Griess method; assay type: functional, cell-based
[3] = tested on: RAW264.7; assay: Antiinflammatory activity against mouse RAW264.7 cells assessed as inhibition of LPS-induced iNOS expression at 10 uM pre-incubated for 2 hrs followed by LPS stimulation measured after 24 hrs by western blot analysis; assay type: functional, cell-based; conditions: time 26.0 hrs
[4] = tested on: RAW264.7; assay: Antiinflammatory activity in mouse RAW264.7 cells assessed as reduction in LPS-induced IL-6 production pre-incubated for 2 hrs followed by LPS stimulation measured after 24 hrs by Griess method; assay type: functional, cell-based; conditions: dose 5-40 µM, time 26.0 hrs
[5] = tested on: RAW264.7; assay: Antiinflammatory activity against mouse RAW264.7 cells assessed as inhibition of LPS-induced NF-kappaB/p65 expression at 10 to 40 uM pre-incubated for 2 hrs followed by LPS stimulation measured after 24 hrs by western blot analysis; assay type: functional, cell-based; conditions: dose 10-40 µM, time 26.0 hrs
[6] = tested on: RAW264.7; assay: Antiinflammatory activity in mouse RAW264.7 cells assessed as reduction in LPS-induced TNF-alpha production pre-incubated for 2 hrs followed by LPS stimulation measured after 24 hrs by Griess method; assay type: functional, cell-based; conditions: dose 5-40 µM, time 26.0 hrs

Which Activity [1] does the source give for CC1=C2C=C3CC[C@@H]4C(C)(C)[C@@H](O)CC[C@@]4(C)[C@@H]3C[C@H]2OC1=O [HELIOSCOPINOLIDE B] here?
Its Activity is “Non-Toxic”.

CC1=C2C=C3CC[C@@H]4C(C)(C)OC(=O)C[C@@]4(C)[C@@H]3C[C@H]2OC1=O was tested. Which Activity [1] did it give?
Its Activity is “Non-Toxic”.

Which Activity [1] does the source give for CC1=C2C=C3CC[C@@H]4C(C)(C)OC(=O)[C@@]4(C)[C@@H]3C[C@H]2OC1=O here?
Its Activity is “Non-Toxic”.

With CC1=C2C=C3CC[C@@H]4C(C)(C)C(=O)CC[C@@]4(C)[C@]3(O)C[C@H]2OC1=O as the molecule, how does the Activity [1] read?
Its Activity is “Non-Toxic”.

With CC1=C2C=C3CC[C@@H]4C(C)(C)[C@H](O)[C@H](O)C[C@@]4(C)[C@@H]3C[C@H]2OC1=O as the molecule, how does the Activity [1] read?
Its Activity is “Non-Toxic”.

For CC1=C2C=C3CC[C@@H]4C(C)(C)[C@H](O)CC[C@@]4(C)[C@@H]3C[C@H]2OC1=O [HELIOSCOPINOLIDE A], which Activity [1] is on record?
Its Activity is “Non-Toxic”.

How did the Activity [1] turn out when CC1=C2C=C3CC[C@@H]4C(C)(C)C(=O)C(O)=C[C@@]4(C)[C@@H]3C[C@H]2OC1=O was run?
The Activity was “Non-Toxic”.

With CC1=C2C(=O)C3=C(C[C@H]2OC1=O)[C@]1(C)CC[C@@H](O)C(C)(CO)[C@H]1CC3 (some centres not stated) as the molecule, how does the Activity [1] read?
The Activity was “Non-Toxic”.

For CC1=C2C=C3CC[C@@H]4C(C)(C)[C@H](O)C(=O)C[C@@]4(C)[C@@H]3C[C@H]2OC1=O, which Activity [1] is on record?
Its Activity is “Non-Toxic”.

And the IC50 [2]?
The IC50 was 33.8 µM.

CC1=C2C=C3CC[C@@H]4C(C)(C)[C@@H](O)CC[C@@]4(C)[C@]3(O)C[C@H]2OC1=O was tested. Which Activity [1] did it give?
Its Activity is “Non-Toxic”.

For CC1=C2C=C3CC[C@@H]4C(C)(C)C(=O)[C@H](O)[C@@]4(C)[C@@H]3C[C@H]2OC1=O, which Activity [3] is on record?
Its Activity is “Active”.

And the Activity [4]?
Its Activity is “Dose-Dependent Effect”.

And the Activity [1]?
Its Activity is “Non-Toxic”.

And the Activity [5]?
Its Activity is “Active”.

What about the Activity [6] of the same molecule?
Its Activity is “Dose-Dependent Effect”.

And the IC50 [2]?
Its IC50 is 33 µM.

From ChEMBL document CHEMBL5252599, “Euphohelides A-C, ent-Abietane-Type Norditerpene Lactones from Euphorbia helioscopia and Their Anti-Inflammatory Activities” (J Nat Prod, 2023)
